The values that follow come from PMC4121658 (Anesthesiology, 2014).

The subject of data set [1] is rats. The settings on record: larger number of Sprague Dawley rats; cited from earlier work.
For data set [2], the system named is rats. Description: Lethality after intravenous bolus injection. Conditions: for rats died: intravenous bolus; for Therapeutic Index: LD50/Hypnotic ED50, rats. The data set is classed as in vivo, Sprague-Dawley rats.
A short description of data set [3]: Lethality after intravenous bolus injection. The data set is classed as in vivo, Sprague-Dawley rats. Conditions: Sprague-Dawley, rat, in vivo, iv.
In data set [4] the target is α1(L264T)β1γ2L GABAA receptors (Homo sapiens, UniProt P14867+P18505, L291T). The data set is classed as cell-based. Conditions: for Surge current amplitude, of the directly activated peak current: 1000 μM drug, upon washout, α1(L264T)β1γ2L.
The target of data set [5] is α1(L264T)β3γ2L GABAA receptors (Homo sapiens, UniProt P14867+P28472, L291T). Description: cell-based. The data set is classed as cell-based. Conditions: for Surge current amplitude, of the directly activated peak current: 1000 μM drug, upon washout, α1(L264T)β3γ2L; for Subunit Selectivity Ratio: EC50 β1 subunit/EC50 β3 subunit, ± SD by error propagation.
The next data set concerns adrenocortical function. Description: ACTH1–24 stimulation test, in vivo adrenocortical inhibitory potency. Further details: species or system Sprague-Dawley rats. The settings on record: Adrenocortical ID50/Hypnotic ED50, rats.

Sequence of α1(L264T)β3γ2L GABAA receptors (P14867 28-456 L291T): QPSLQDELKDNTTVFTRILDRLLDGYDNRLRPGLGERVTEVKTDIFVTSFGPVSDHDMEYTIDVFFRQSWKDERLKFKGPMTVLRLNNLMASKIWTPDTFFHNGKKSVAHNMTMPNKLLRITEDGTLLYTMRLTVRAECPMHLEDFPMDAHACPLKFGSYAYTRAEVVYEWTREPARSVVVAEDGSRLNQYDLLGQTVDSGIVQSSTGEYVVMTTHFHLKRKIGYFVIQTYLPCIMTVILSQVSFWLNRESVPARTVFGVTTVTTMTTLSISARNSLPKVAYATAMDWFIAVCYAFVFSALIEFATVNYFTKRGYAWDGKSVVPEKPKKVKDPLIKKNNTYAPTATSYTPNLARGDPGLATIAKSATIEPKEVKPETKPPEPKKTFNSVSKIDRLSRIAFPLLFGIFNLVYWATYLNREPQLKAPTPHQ
Sequence of α1(L264T)β3γ2L GABAA receptors (P28472 26-473): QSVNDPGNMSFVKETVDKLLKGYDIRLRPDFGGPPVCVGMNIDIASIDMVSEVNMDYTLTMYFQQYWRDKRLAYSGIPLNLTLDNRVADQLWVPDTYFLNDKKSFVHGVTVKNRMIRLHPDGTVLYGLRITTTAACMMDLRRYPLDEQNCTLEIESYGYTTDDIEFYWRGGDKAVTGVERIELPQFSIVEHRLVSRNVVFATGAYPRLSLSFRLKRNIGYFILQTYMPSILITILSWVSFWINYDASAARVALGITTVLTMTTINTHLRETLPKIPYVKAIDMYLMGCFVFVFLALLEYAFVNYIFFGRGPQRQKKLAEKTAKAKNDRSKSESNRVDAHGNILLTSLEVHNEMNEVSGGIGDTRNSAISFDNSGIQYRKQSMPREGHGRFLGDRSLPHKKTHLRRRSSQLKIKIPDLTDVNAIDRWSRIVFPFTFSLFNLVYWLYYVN
Sequence of α1(L264T)β3γ2L GABAA receptors (P18507 40-475 partner): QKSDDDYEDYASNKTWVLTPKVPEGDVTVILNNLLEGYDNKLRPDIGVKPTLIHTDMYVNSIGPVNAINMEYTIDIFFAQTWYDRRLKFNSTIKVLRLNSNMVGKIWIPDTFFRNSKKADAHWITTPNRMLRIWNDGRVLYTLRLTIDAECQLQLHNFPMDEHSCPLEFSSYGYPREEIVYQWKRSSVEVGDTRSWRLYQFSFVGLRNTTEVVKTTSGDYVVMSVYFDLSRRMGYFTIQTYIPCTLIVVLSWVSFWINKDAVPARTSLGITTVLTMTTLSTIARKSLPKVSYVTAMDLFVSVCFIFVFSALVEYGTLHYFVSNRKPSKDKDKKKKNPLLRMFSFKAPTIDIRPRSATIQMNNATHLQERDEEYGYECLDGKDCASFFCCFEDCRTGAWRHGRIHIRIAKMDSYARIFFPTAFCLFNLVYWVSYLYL
Sequence of α1(L264T)β1γ2L GABAA receptors (P14867 28-456 L291T): as the sequence (P14867 28-456 L291T) above
Sequence of α1(L264T)β1γ2L GABAA receptors (P18505 26-474): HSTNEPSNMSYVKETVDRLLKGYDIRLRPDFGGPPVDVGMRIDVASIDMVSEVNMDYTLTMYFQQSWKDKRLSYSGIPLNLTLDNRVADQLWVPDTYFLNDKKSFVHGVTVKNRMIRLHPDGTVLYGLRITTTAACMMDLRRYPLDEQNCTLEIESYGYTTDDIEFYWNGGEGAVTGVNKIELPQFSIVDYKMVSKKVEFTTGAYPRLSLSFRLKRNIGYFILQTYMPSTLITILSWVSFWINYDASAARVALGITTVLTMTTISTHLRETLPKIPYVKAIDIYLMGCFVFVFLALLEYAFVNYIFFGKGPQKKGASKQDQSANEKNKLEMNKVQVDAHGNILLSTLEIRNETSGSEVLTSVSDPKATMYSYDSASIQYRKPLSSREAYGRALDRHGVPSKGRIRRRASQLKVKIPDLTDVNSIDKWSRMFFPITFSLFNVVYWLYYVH
Sequence of α1(L264T)β1γ2L GABAA receptors (P18507 40-475 partner): as the sequence (P18507 40-475 partner) above

What is called LD50 is the dose at which mortality reaches 50%. Regarding `CCOC(=O)c1cncn1[C@H](C)c1ccccc1` [R-etomidate, R-ethyl 1-(1-phenylethyl)-1H-imidazole-5-carboxylate, reference compound], the “LD50, previously reported value” in the data set on rats [1] is recorded as 20.4 mg/kg. In addition, the rats died in the data set with rats [2] (20 mg/kg dose) is 1/2. Also, the figures for the 50% lethal dose (LD50) in data set [3] and in data set [3] (20 mg/kg) were 15 mg/kg and 20 mg/kg, respectively.
With `CCOC(=O)c1cncn1[C@@H](C)c1ccccc1` [S-etomidate, S-ethyl 1-(1-phenylethyl)-1H-imidazole-5-carboxylate, reference compound], in the data set with rats [2] (30 mg/kg dose), the rats died is 3/3. Also, the LD50 in data set [3] was found to be 25 mg/kg.
One may read the EC50 as the concentration needed to bring the measured effect to its halfway point. Low values mean an effect from little substance, high ones a need for much substance. In the case of `CCOC(=O)c1cncn1C1(c2ccccc2)CC1` [cyclopropyl etomidate, ethyl 1-(1-phenylcyclopropyl)-1H-imidazole-5-carboxylate], in data set [4], the response was half-maximal at 1590 ± 140 µM (EC50) and the “Surge current amplitude, of the directly activated peak current” value (“Surge current amplitude” for short) was 73.0 ± 38.5%. In data set [5], a half-maximal response (EC50) required 67.6 ± 8.1 µM; the “Surge current amplitude” value is 61.5 ± 6.9%; the “Subunit Selectivity Ratio” value is 23.5 ± 3.5. In addition, in the data set on rats [2] (50 mg/kg dose), the rats died was 2/4. In addition, in the data set with rats [2], the “Therapeutic Index” value came to 10. The molecule further yielded an LD50 in data set [3] of 50 mg/kg. Also, the “Adrenocortical Toxicity Index” value in the data set with adrenocortical function was 0.38 ± 0.08.
Take `CCOC(=O)c1cncn1Cc1ccccc1` [dihydrogen etomidate, ethyl 1-benzyl-1H-imidazole-5-carboxylate]: in data set [4], the EC50 was found to be 400 ± 28 µM and the “Surge current amplitude” value was 3 ± 2%. Besides, in data set [5], a half-maximal response (EC50) required 161 ± 13 µM; the “Surge current amplitude” value was determined as 3 ± 2%; the “Subunit Selectivity Ratio” value is 2.48 ± 0.27. Also, the rats died in the data set with rats [2] (50 mg/kg dose) is reported as 3/3. Moreover, in the data set with rats [2], the “Therapeutic Index” value is 8. This molecule also showed an LD50 in data set [3] of 40 mg/kg. The “Adrenocortical Toxicity Index” value with adrenocortical function is 0.52 ± 0.12.
With `CC(C)c1cccc(C(C)C)c1O` [propofol, reference compound], the midpoint of the response in data set [5], the EC50, lay at 7.58 ± 0.83 µM.
